Data on one molecule can be found in patent publication US20060241082A1, “Modulating vesicular monoamine transporter trafficking and function: a novel approach for the treatment of parkinson's disease” (priority 2002, published 2006).

The target in test [1] is T1, DAT (Rattus norvegicus, UniProt P23977).
T1 construct: from tissue; host or cells: striatum of male Sprague-Dawley rats (synaptosomes, P2)
Briefly: In vitro preincubation of striatal synaptosomes with MDMA: [3H]DA uptake and WIN35428 binding. The format is biochemical. The following applies: 30 min, 37° C. The method, then:
(§1) Uptake of [^3H]DA was determined in striatal synaptosomes prepared according to the method described by Kokoshka et al. (1998). Briefly, fresh striatal tissue was homogenized in cold 0.32 M sucrose and centrifuged (800×g for 12 min; 4° C.). The supernatant (S1) was then centrifuged (22,000×g for 15 min; 4° C.), and the resulting pellet (P2) was resuspended in ice-cold modified Kreb's buffer (in mM: 126 NaCl, 4.8 KCl, 1.3 CaCl2, 16 sodium phosphate, 1.4 MgSO4, 11 dextrose, 1-ascorbic acid, pH 7.4). Assays were conducted in Kreb's buffer. Each assay tube contained synaptosomal tissue (i.e., resuspended P2 obtained from 1.5 mg of original wet weight striatal tissue) and 1 μM pargyline. Nonspecific values were determined in the presence of 100 μM cocaine. After preincubation of assay tubes for 10 min at 37° C., assays were initiated by the addition of [^3H]DA (0.5 nM final concentration). Samples were incubated at 37° C. for 3 min. Samples were then filtered through Whatman GF/B filters (Brandel, Gaithersburg, Md.) soaked previously in 0.05% polyethylenimine. Filters were washed rapidly 3 times with 3 ml of ice-cold 0.32 M sucrose using a Brandel filtering manifold. […] Remaining resuspended P2 samples were assayed for protein concentrations according to the method of Lowry et al. (1951). In MDMA preincubation experiments, samples were preincubated with 10 μM MDMA for 30 min at 37° C. After 30 min, resuspended P2 fractions were “washed” by centrifugation (22,000×g for 15 min; 4° C.). The resulting pellet (P3) was then resuspeded in ice-cold Kreb's buffer, and once again centrifuged (22,000×g for 15 min; 4° C.) to obtain a P4 pellet that was subsequently resuspended and assayed. [^3H]WIN35428 binding (0.5 nM final concentration) was conducted in phosphate-buffered 0.32 M sucrose, pH 7.4, with synaptosomes obtained from 2 mg (original wet weight) of striatal tissue per reaction tube, and samples were incubated on ice for 2 hr. Samples were then filtered through Whatman GF/B filters (Brandel, Gaithersburg, Md.) soaked previously in 0.05% polyethylenimine. Filters were washed rapidly 3 times with 3 ml of ice-cold 0.32 M sucrose using a Brandel filtering manifold. […] Remaining resuspended P2 samples were assayed for protein concentrations according to the method of Lowry et al. (1951).

Test [2] has as its target VMAT-2 (Mus musculus, UniProt Q8BRU6). Briefly: Vesicular [3H]dopamine uptake in striatal vesicles prepared from treated mice. The format is in vivo. To be noted: MDMA 4 x 10 mg/kg s.c. Here is the method: (A. E. Fleckenstein, et al., J. Pharmacol Exp Ther. (1997) 282:834-838). Briefly, fresh tissue was homogenized in ice-cold 0.32 M sucrose. The homogenate was centrifuged (800×g for 12 min; 4° C.), and the supernatant (S1) was carefully removed and centrifuged (22,000×g for 15 min; 4° C.) to obtain the synaptosomal-containing pellet (P2). The resulting P2 were resuspended and homogenized in ice-cold distilled deionized water. Osmolarity was restore by addition 25 mM HEPES and 100 mM potassium tartrate (final concentration; pH 7.5 at 4° C. respectively). […] The resultant S3 removed and MgSO4 added (final concentration of [1 mM] pH 7.5 at 4° C.) and centrifuged at 100,000×g for 45 min. The final P4 were resuspended at 50 mg/ml (original tissue wet weight).

For test [3], the target named is T2, plasmalemmal DA transporter (DAT) (Rattus norvegicus, UniProt P23977).
T2 construct: from tissue; host or cells: striatum of male Sprague-Dawley rats (synaptosomes, P2)
Briefly: Plasmalemmal [3H]DA uptake in striatal synaptosomes prepared from treated rats. Type of test: in vivo. To be noted: MDMA 4 x 10 mg/kg s.c. The method, then:
Uptake of [^3H]DA was determined in striatal synaptosomes prepared according to the method described by Kokoshka et al. (1998). Briefly, fresh striatal tissue was homogenized in cold 0.32 M sucrose and centrifuged (800×g for 12 min; 4° C.). The supernatant (S1) was then centrifuged (22,000×g for 15 min; 4° C.), and the resulting pellet (P2) was resuspended in ice-cold modified Kreb's buffer (in mM: 126 NaCl, 4.8 KCl, 1.3 CaCl2, 16 sodium phosphate, 1.4 MgSO4, 11 dextrose, 1-ascorbic acid, pH 7.4). Assays were conducted in Kreb's buffer. Each assay tube contained synaptosomal tissue (i.e., resuspended P2 obtained from 1.5 mg of original wet weight striatal tissue) and 1 μM pargyline. Nonspecific values were determined in the presence of 100 μM cocaine. After preincubation of assay tubes for 10 min at 37° C., assays were initiated by the addition of [^3H]DA (0.5 nM final concentration). Samples were incubated at 37° C. for 3 min. Samples were then filtered through Whatman GF/B filters (Brandel, Gaithersburg, Md.) soaked previously in 0.05% polyethylenimine. Filters were washed rapidly 3 times with 3 ml of ice-cold 0.32 M sucrose using a Brandel filtering manifold. […] Remaining resuspended P2 samples were assayed for protein concentrations according to the method of Lowry et al. (1951). In MDMA preincubation experiments, samples were preincubated with 10 μM MDMA for 30 min at 37° C. After 30 min, resuspended P2 fractions were “washed” by centrifugation (22,000×g for 15 min; 4° C.). The resulting pellet (P3) was then resuspeded in ice-cold Kreb's buffer, and once again centrifuged (22,000×g for 15 min; 4° C.) to obtain a P4 pellet that was subsequently resuspended and assayed. [^3H]WIN35428 binding (0.5 nM final concentration) was conducted in phosphate-buffered 0.32 M sucrose, pH 7.4, with synaptosomes obtained from 2 mg (original wet weight) of striatal tissue per reaction tube, and samples were incubated on ice for 2 hr. Samples were then filtered through Whatman GF/B filters (Brandel, Gaithersburg, Md.) soaked previously in 0.05% polyethylenimine. […]

Test [4] concerns the target T2, plasmalemmal DA transporter (DAT). To be noted: MDMA-treated rats, multiple high-dose, Metzger et al., 1998, cited from earlier work.
The target of test [5] is T3, VMAT-2 (Rattus norvegicus, UniProt Q01827). The format is in vivo. On the set-up: purified striatal vesicles prepared from treated rats; from tissue; host or cells: striatum of male Sprague-Dawley rats (synaptic vesicles; P2, P3, S3 fractions). To be noted: rats, MDMA 4 x 10 mg/kg s.c. Here is the method: Osmolarity was restored by addition of N-(2-hydroxyethyl)-piperazine-N′-2-ethanesulfonic acid (HEPES) and potassium tartrate 25 mM and 100 mM (final concentrations; pH 7.5 at 4° C.), respectively.

In test [6] the target is T1, DAT. Description: [3H]WIN35428 binding in striatal synaptosomes prepared from treated rats. The following applies: MDMA 4 x 10 mg/kg s.c. Type of test: in vivo. The method, then:
as §1

For test [7], the target named is T3, VMAT-2. Briefly: [3H]DHTBZ binding in purified striatal vesicles prepared from treated rats. The following applies: rats, MDMA 4 x 10 mg/kg s.c., both 1 and 24 h after treatment.
Procedure: Synaptic vesicles were obtained from synaptosomes prepared from rat striatum as described above. Synaptosomes were resuspended and homogenized in cold distilled deionized water. Osmolarity was restored by addition of HEPES and potassium tartrate 245 and 100 mM (final concentrations; pH 7.5), respectively. Samples were centrifuged for 20 min at 20,000×g (4° C.) to remove lysed synaptosomal membranes. MgSO4 (1 mM, final concentration) was added to the supernatant, which was then centrifuged for 45 min at 100,000×g (4° C.). The resulting vesicular pellet was resuspended in wash buffer at a concentration of 50 mg/ml (original tissue weight). […] Binding of [^3H]DHTBZ was performed as described by Teng et al. (1998). Briefly, 200 μl of the synaptic vesicle preparation (˜6 μg of protein) was incubated in wash buffer in the presence of [^3H]DHTBZ (2 nM final concentration) for 10 min at 25° C. The reaction was terminated by addition of 1 ml of cold wash buffer and rapid filtration through Whatman GF/F filters soaked in 0.5% polyethylenimine. Filters were washed three times with ice-cold wash buffer. Nonspecific binding was determined by coincubation with 20 μM tetrabenazine. All protein concentrations were determined by a BioRad protein assay (Bio-Rad, Richmond, Calif.).
Binding of [^3H]DHTBZ was performed as described by Teng et al. (1998). Briefly, 200 μl (˜6 μg protein) of the synaptic vesicle preparation was incubated in wash buffer in the presence of [^3H]DHTBZ (2 nM final concentration except in kinetic analyses wherein 0.25-500 nM DHTBZ was employed) for 10 m in at 25° C. The reaction was terminated by addition of 1 ml cold wash buffer and rapid filtration through Whatman GF/F filters soaked in 0.5% polyethylenimine. Filters were washed three times with ice-cold wash buffer. Radioactivity trapped in filters was counted using a liquid scintillation counter. Nonspecific binding was determined by coincubation with 20 μM TBZ. All protein concentrations were determined by a Bio-Rad protein assay (Bio-Rad Inc.).
Binding of[^3H]DHTBZ was performed as described by Teng et al. (1998). Briefly, 200 μl (˜5 μg protein) of the synaptic vesicle preparation was incubated in wash buffer in the presence of [^3H]DHTBZ (2 nM final concentration except in kinetic analyses wherein 0.25-500 nM DHTBZ was employed) for 10 m in at 25° C. The reaction was terminated by addition of 1 ml cold wash buffer and rapid filtration through Whatman GF/F filters soaked in 0.5% polyethylenimine. Filters were washed three times with ice-cold wash buffer. Radioactivity trapped in filters was counted using a liquid scintillation counter. Nonspecific binding was determined by coincubation with 20 μM TBZ. All protein concentrations were determined by a Bio-Rad protein assay (Bio-Rad Inc.).

“And” between values parts separate entries of the source, which are not always exact repeats. Equal entries are not always repeated.

T3 sequence (Q01827 whole entry): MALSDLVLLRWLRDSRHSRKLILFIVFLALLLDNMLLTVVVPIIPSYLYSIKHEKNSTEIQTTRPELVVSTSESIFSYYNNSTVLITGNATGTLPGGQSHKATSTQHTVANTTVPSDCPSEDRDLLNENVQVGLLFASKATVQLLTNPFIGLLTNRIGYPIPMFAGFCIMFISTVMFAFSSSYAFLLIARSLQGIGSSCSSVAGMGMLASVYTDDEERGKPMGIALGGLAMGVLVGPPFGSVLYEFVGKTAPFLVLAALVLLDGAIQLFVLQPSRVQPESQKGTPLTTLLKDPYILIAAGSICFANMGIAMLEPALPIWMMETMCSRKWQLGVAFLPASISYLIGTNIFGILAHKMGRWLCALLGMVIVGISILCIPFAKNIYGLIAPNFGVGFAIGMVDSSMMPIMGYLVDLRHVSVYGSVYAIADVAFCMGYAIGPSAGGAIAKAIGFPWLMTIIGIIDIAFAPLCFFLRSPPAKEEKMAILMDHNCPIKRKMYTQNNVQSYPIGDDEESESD
T2 sequence (P23977 whole entry): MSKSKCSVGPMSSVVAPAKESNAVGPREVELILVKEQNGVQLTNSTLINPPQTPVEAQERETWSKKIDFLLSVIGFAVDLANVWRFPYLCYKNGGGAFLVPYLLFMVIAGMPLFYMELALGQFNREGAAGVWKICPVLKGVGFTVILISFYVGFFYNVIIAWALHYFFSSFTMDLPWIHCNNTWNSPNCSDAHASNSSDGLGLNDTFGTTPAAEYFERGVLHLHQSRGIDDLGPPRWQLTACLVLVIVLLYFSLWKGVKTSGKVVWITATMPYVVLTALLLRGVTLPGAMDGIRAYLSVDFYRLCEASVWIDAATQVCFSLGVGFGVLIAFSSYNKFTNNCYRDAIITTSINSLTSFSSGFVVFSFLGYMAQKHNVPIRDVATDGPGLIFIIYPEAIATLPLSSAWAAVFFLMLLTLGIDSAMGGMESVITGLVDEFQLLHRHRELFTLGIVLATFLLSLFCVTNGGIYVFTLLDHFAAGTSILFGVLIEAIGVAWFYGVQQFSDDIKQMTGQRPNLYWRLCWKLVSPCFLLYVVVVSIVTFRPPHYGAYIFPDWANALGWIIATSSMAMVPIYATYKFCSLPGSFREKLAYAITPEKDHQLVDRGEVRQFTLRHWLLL
T1 sequence (P23977 whole entry): as above
Chain of VMAT-2 (Mus musculus, UniProt Q8BRU6) (Q8BRU6 whole entry): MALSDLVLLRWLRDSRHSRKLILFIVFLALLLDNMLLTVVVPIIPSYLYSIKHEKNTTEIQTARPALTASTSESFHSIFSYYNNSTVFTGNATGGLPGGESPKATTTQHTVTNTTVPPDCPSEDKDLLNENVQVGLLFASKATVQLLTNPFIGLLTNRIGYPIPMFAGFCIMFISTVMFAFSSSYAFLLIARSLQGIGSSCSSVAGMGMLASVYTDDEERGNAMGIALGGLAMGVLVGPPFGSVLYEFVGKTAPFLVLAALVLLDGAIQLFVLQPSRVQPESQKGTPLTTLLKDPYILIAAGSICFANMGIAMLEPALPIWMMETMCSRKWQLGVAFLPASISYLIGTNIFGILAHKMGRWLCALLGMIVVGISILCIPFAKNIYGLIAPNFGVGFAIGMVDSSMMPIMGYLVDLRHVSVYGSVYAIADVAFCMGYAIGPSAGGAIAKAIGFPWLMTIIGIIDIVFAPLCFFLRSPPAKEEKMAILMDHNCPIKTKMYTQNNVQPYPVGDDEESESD

In general, Km refers to the substrate concentration at which the rate is half of its maximum. As to `CNC(C)Cc1ccc2c(c1)OCO2` (stereo not drawn) [MDMA, methylenedioxymethamphetamine], the “WIN35428 binding after incubation of synaptosomes with MDMA” value on DAT [1] (MDMA 10 μM) is given as “no effect”. The “decrease in DA uptake in vitro” value on DAT [1] (striatal synaptosomes incubated with MDMA 10 μM) was 35-55%. Also, the “vesicular dopamine uptake after multiple MDMA administrations” value on VMAT-2 [2] (1 h) is listed as “rapidly decreased”. Moreover, the “decrease in vesicular dopamine uptake 24 h later” value on VMAT-2 [2] (24 h) was “largely reversed”. The “magnitude of the decrease in plasmalemmal DA uptake” value in test [3] (2-h intervals, 1 h) is recorded as 35-55%. For the same molecule, the “deficit in plasmalemmal DA uptake 24 h after drug treatment” value in test [3] (24 h) is listed as “reversed”. In addition, in test [4], the “Vmax of plasmalemmal DA uptake” value is 1410 fmol/μg/5 min. Also, the Michaelis constant (Km) in test [4] (read-out: transporter Km of plasmalemmal DA uptake) was 0.0989 µM. At VMAT-2 [5] (1 h), the “deficit in vesicular DA uptake” value is listed as 25-30% and the “vesicular DA uptake 1 h after multiple MDMA administrations” value is “rapidly decreased”. Also, the “deficit in vesicular DA uptake 24 h after drug treatment” value on VMAT-2 [5] (24 h) is “partially recovered”. The “WIN35428 binding in the body temperature experiment” value at DAT [6] (6 or 24° C. ambient, 1 h (data not shown)) was “not affected”. For the same molecule, the “decrease in WIN35428 binding” value at DAT [6] (1 h after treatment) is 10% and 18%. For the same molecule, the “deficit in WIN35428 binding 24 h after drug treatment” value on DAT [6] (24 h) is recorded as “persisted”. Further, on VMAT-2 [7], the “binding of the VMAT-2 ligand [3H]DHTBZ” value is “reduced”.
